Experiments:
Experiment in all cases: Post-emergence application in field trials, herbicidal activity (damage scale 0 to 100%)
Assay type in all cases: in vivo
[1] = tested on: Glycine max (GLXMA); conditions: 7 DAT; stage 12-13, height 7-11 cm; g ai/ha A-1 12.5, B 70, C-4 12.5
Protocol: (§1) In the examples below, using the method of S. R. Colby (1967) “Calculating synergistic and antagonistic responses of herbicide combinations”, Weeds 15, p. 22ff., the value E, which is expected if the activity of the individual active compounds is only additive, was calculated:
(§2) [formula] • wherein • X=percent activity using active herbicide A at an application rate a; • Y=percent activity using active herbicide B (e.g. pyroxasulfone) at an application rate b; • E=expected activity (in %) by A+B at application rates a+b.
(§3) For 3-component mixtures the synergistic response was calculated as described in: Ferry, Nancy; Stanley, Bruce H.; and Armel, Gregory (2005). “DESIGN AND ANALYSIS OF BIOLOGICAL ASSAYS OF MIXTURES,” Conference on Applied Statistics in Agriculture. https://doi.org/10.4148/2475-7772.1133. According to this publication, the Colby calculation can be generalized to a third mixing partner, Z, employing the following formula: […]
(§4) If the value found experimentally is higher than the value E calculated according to Colby, a synergistic effect is present.
(§5) On field test sites, natural weed infestation or seeded weeds were treated post-emergence of the weeds.
(§6) In the field trials, the weeds were treated as indicated below.
(§7) In the following experiments, the herbicidal activity for the individual herbicidal compositions (solo and mixture applications) was assessed at the indicated days after treatment (DAT). The assessments for the damage on undesired weeds caused by the composition was carried out using a scale from 0 to 100%, compared to the untreated control plants. Here, 0 means no damage and 100 means complete destruction of the plants.
(§8) Herbicide A-1 (342 g/l) and pyroxasulfone (500 g/l) were, together with addition of 0.25 v/v % MSO (methylated seed oil) as adjuvant, formulated in 200 l/ha water as distribution medium and sprayed with commercial flat fan nozzles.
(§9) Herbicide A-1 (342 g/l), pyroxasulfone (500 g/l) and trifludimoxazin (500 g/l) were, together with addition of 0.25 v/v % MSO (methylated seed oil) as adjuvant, formulated in 200 l/ha water as distribution medium and sprayed with commercial flat fan nozzles.
(§10) Herbicide A-1 (342 g/I), pyroxasulfone (500 g/l) and glyphosate-isopropylammonium (356 g/l) were, together with addition of 0.25 v/v % MSO (methylated seed oil) as adjuvant, formulated in 200 l/ha water as distribution medium and sprayed with commercial flat fan nozzles.
(§11) Herbicide A-1 (342 g/l), pyroxasulfone (500 g/l) and glufosinate-P-ammonium (211 g/l) were, together with addition of 0.25 v/v % MSO (methylated seed oil) as adjuvant, formulated in 200 l/ha water as distribution medium and sprayed with commercial flat fan nozzles.
(§12) Herbicide A-1 (342 g/l), pyroxasulfone (500 g/l) and 2,4-D-choline (456 g/l) were, together with addition of 0.25 v/v % MSO (methylated seed oil) as adjuvant, formulated in 200 l/ha water as distribution medium and sprayed with commercial flat fan nozzles.

[2] = tested on: Zea mays (ZEAMX); conditions: 7 DAT; stage 15-16, height 27-33 cm; g ai/ha A-1 18, B 90, C-4 12.5
Protocol: as §1, §2, §3, §4, §5, §6, §7, §8, §9, §10, §11, §12

[3] = tested on: Amaranthus retroflexus (AMARE); conditions: stage 31-49, height 10-12 cm
Protocol: as §1, §2, §3, §4, §5, §6, §7, §8, §9, §10, §11, §12

[4] = tested on: Setaria verticillata (SETVE); conditions: 7 DAT, stage 21-23, height 8-16 cm
Protocol: as §1, §2, §3, §4, §5, §6, §7, §8, §9, §10, §11, §12

[5] = tested on: Digitaria sanguinalis (DIGSA); conditions: stage 22, height 10-15 cm
Protocol: as §1, §2, §3, §4, §5, §6, §7, §8, §9, §10, §11, §12

[6] = 7 DAT, g ai/ha A-1 12.5, B 70, C-4 12.5
[7] = 42 DAT, g ai/ha A-1 12.5, B 70, C-4 12.5
[8] = 42 DAT, g ai/ha A-1 18, B 70, C-4 12.5
[9] = 42 DAT, g ai/ha A-1 18, B 90, C-4 12.5

In the case of `C#CCN1C(=O)C(F)(F)Oc2cc(F)c(-n3c(=O)n(C)c(=S)n(C)c3=O)cc21` [C-4, trifludimoxazin], the “% Herbicidal activity” value [1] is reported as 75%, the “% Herbicidal activity” value [2] is reported as 40% and the “% Herbicidal activity” value [3, 6] is reported as 80%. The “% Herbicidal activity” value [3, 7] was 80%, the “% Herbicidal activity” value [3, 8] was 80% and the “% Herbicidal activity” value [3, 9] was 80%. For the same compound, the “% Herbicidal activity” value ([4]; g ai/ha A-1 18, B 90, C-4 12.5) was 40%, the “% Herbicidal activity” value [5, 6] was 30% and the “% Herbicidal activity” value ([5]; 7 DAT, g ai/ha A-1 18, B 70, C-4 12.5) was 30%. The “% Herbicidal activity” value ([5]; 7 DAT, g ai/ha A-1 18, B 90, C-4 12.5) was 30%, the “% Herbicidal activity” value ([5]; 21 DAT, g ai/ha A-1 12.5, B 70, C-4 12.5) was 30% and the “% Herbicidal activity” value ([5]; 21 DAT, g ai/ha A-1 18, B 70, C-4 12.5) was 30%. The “% Herbicidal activity” value ([5]; 21 DAT, g ai/ha A-1 18, B 90, C-4 12.5) was 30%, the “% Herbicidal activity” value [5, 7] was 20% and the “% Herbicidal activity” value [5, 8] was 20%. For the same compound, the “% Herbicidal activity” value [5, 9] was 20%.

`CC(C)N.O=C(O)CNCP(=O)(O)O` [C-8, glyphosate-isopropylammonium] was tested, and the “% Herbicidal activity” value ([4]; g ai/ha A-1 18, B 70, C-8 840) was 75%, the “% Herbicidal activity” value ([4]; g ai/ha A-1 18, B 90, C-8 840) was 75% and the “% Herbicidal activity” value ([5]; 7 DAT, g ai/ha A-1 18, B 70, C-8 840) was 85%. The “% Herbicidal activity” value ([5]; 7 DAT, g ai/ha A-1 18, B 90, C-8 840) was 85%.

From patent US12690589B2, “Herbicidal compositions comprising pyroxasulfone” (BASF SE, priority 2024, dated 2026)
